Laboratory results reported in ChEMBL document CHEMBL5154659, “A3 adenosine receptor agonists containing dopamine moieties for enhanced interspecies affinity” (Eur J Med Chem, 2022).
≈ marks a conversion by molar mass, not a printed value.

What was measured:
[1] = Aqueous solubility of compound at pH 7.4; format: physicochemical
[2] = Oral bioavailability in Wistar rat at 10 mg/kg; format: ADME, organism-based; conditions: in vivo
[3] = biological target: Voltage-gated inwardly rectifying potassium channel KCNH2 (Homo sapiens, UniProt Q12809); experiment: Inhibition of human ERG; format: toxicity
Chain of Voltage-gated inwardly rectifying potassium channel KCNH2 (Q12809 whole entry): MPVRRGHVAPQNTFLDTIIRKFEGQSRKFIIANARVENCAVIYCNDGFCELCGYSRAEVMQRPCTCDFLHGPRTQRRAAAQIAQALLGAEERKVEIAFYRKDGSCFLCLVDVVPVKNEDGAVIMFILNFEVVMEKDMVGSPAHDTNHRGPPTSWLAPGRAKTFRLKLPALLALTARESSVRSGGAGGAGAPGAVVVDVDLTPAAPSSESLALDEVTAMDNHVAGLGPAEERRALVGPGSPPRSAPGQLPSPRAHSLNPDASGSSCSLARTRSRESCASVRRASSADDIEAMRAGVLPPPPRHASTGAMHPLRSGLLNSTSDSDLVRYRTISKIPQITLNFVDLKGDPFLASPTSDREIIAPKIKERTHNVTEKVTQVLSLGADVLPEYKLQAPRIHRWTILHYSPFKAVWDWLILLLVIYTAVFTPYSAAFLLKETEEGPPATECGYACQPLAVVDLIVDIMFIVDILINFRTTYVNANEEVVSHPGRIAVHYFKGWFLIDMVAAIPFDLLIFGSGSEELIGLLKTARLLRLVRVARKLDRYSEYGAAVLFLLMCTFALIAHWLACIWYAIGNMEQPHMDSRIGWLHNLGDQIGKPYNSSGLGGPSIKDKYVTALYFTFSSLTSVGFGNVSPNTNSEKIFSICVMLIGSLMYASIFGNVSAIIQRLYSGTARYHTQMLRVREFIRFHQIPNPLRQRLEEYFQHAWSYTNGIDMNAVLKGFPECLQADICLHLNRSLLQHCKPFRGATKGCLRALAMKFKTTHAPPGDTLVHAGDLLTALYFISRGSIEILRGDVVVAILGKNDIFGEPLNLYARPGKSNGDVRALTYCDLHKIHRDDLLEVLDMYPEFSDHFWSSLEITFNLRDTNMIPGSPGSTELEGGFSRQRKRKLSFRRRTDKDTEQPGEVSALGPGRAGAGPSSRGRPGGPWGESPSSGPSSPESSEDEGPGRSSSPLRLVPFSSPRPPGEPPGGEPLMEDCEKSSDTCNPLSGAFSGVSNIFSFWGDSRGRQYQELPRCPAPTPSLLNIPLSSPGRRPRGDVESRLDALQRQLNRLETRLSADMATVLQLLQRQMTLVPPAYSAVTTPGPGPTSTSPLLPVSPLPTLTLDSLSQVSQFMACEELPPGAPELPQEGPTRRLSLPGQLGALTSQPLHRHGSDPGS

[4] = Half life in Wistar rat at 0.5 mg/kg, iv; format: ADME, organism-based; conditions: in vivo
[5] = biological target: T1, Adenosine receptor A1 (Homo sapiens) (UniProt P30542); experiment: Binding affinity to human adenosine A1A receptor expressed in human HEK293 cell membrane at 10 uM by radioligand inhibition assay; format: cell membranes
T1 sequence (whole entry): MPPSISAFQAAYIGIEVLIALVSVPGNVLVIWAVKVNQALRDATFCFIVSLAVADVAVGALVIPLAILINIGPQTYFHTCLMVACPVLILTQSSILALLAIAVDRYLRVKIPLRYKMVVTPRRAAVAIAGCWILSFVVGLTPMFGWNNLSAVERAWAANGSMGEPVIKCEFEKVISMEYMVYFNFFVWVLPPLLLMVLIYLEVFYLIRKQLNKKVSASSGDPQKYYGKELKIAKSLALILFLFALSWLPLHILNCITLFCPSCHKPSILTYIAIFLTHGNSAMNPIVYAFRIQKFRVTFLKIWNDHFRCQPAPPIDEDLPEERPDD

[6] = biological target: T2, Adenosine receptor A2a (Homo sapiens, UniProt P29274); experiment: Binding affinity to human adenosine A2A receptor expressed in human HEK293 cell membrane at 10 uM by radioligand inhibition assay; format: cell membranes
T2 sequence (P29274 whole entry): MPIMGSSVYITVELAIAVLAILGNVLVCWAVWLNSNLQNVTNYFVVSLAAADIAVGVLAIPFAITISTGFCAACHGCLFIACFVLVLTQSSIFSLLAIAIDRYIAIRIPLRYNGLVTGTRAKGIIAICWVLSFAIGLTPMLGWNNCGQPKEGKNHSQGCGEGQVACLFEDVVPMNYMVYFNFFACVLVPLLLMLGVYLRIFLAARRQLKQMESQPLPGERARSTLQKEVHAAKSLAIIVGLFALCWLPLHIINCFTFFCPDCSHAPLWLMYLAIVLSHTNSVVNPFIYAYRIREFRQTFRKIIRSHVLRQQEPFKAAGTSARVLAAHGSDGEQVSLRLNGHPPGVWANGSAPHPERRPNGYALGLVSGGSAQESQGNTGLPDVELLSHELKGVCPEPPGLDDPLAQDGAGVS

[7] = biological target: T3, Adenosine receptor A3 (Homo sapiens, UniProt P0DMS8); experiment: Displacement of [125I] N6-(4-amino-3-iodobenzyl)adenosine-5'-N-methyluronamide from human A3A receptor stably expressed in HEK293 cell membrane by radioligand inhibition assay; format: cell membranes
T3 sequence (P0DMS8 whole entry): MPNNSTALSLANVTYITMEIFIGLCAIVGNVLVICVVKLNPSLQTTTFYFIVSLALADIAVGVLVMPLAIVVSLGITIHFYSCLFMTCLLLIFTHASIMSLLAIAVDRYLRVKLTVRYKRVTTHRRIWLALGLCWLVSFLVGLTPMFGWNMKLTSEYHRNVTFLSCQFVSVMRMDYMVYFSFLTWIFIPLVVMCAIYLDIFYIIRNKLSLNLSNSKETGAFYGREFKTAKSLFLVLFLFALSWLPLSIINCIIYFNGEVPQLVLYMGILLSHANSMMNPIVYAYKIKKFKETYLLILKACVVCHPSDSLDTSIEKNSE

[8] = Stability of the compound in simulated intestinal fluid assessed as parent compound remaining at 120 mins; format: ADME; conditions: simulated gi fluid, 2 h
[9] = Stability of the compound in simulated gastric fluid assessed as parent compound remaining at 120 mins; format: ADME; conditions: simulated gi fluid, 2 h
[10] = biological target: T4, Cytochrome P450 1A2 (Homo sapiens, UniProt P05177); experiment: Inhibition of CYP1A2 (unknown origin); format: ADME
T4 sequence (P05177 whole entry): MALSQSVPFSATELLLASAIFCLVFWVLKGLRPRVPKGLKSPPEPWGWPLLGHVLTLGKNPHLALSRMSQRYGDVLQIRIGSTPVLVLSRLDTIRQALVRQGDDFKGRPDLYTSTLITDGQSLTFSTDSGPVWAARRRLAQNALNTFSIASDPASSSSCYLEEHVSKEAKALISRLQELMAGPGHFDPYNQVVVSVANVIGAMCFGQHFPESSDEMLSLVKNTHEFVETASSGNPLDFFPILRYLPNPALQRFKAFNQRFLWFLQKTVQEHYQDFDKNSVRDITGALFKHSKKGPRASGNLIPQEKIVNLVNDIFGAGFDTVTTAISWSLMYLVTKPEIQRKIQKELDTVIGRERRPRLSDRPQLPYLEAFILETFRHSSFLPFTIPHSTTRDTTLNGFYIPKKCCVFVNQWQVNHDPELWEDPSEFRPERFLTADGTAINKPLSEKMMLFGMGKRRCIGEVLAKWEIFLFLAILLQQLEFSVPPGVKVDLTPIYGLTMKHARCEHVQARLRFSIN

[11] = biological target: Cytochrome P450 2C9 (Homo sapiens, UniProt P11712); experiment: Inhibition of CYP2C9 (unknown origin); format: ADME
Chain of Cytochrome P450 2C9 (P11712 whole entry): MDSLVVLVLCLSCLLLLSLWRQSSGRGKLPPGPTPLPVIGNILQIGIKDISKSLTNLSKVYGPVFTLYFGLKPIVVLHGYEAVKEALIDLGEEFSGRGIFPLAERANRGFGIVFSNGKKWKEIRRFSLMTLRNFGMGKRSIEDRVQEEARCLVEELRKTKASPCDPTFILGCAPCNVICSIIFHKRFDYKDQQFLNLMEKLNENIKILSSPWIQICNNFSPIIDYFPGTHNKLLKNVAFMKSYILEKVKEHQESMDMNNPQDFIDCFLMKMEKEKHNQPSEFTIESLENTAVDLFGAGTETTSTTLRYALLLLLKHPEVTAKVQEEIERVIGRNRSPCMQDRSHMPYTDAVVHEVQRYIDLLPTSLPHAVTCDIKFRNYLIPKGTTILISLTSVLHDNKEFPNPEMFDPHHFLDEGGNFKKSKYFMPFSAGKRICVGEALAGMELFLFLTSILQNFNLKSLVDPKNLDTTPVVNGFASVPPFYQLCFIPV

[12] = biological target: Cytochrome P450 2C19 (Homo sapiens, UniProt P33261); experiment: (§1) Inhibition of CYP2C19 (unknown origin); format: ADME
Chain of Cytochrome P450 2C19 (P33261 whole entry): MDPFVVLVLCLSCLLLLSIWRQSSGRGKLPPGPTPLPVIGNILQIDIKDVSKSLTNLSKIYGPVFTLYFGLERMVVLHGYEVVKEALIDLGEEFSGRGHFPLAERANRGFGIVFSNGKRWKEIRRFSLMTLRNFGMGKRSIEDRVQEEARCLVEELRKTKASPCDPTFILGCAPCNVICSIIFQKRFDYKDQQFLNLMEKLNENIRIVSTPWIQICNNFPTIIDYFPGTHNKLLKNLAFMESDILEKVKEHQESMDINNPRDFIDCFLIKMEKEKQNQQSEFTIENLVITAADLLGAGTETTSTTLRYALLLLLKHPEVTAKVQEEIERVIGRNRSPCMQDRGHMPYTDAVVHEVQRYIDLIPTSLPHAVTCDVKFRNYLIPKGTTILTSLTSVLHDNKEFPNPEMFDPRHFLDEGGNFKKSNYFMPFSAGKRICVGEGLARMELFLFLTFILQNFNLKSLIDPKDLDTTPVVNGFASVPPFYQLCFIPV

[13] = biological target: Cytochrome P450 2D6 (Homo sapiens, UniProt P10635); experiment: (§2) Inhibition of CYP2D6 (unknown origin); format: ADME
Chain of Cytochrome P450 2D6 (P10635 whole entry): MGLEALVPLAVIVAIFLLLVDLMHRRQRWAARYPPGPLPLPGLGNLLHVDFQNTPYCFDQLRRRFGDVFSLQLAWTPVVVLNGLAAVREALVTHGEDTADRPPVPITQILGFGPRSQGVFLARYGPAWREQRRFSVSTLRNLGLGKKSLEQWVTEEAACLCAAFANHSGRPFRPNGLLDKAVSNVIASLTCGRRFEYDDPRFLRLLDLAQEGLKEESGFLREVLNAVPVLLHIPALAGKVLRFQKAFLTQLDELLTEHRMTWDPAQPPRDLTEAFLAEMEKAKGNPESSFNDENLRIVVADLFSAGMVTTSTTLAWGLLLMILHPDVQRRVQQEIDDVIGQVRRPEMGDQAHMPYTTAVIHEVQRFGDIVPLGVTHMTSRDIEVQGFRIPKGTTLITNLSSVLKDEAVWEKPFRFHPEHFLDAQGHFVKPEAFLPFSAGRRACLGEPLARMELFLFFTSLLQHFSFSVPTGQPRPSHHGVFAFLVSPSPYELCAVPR

[14] = biological target: Cytochrome P450 3A4 (Homo sapiens, UniProt P08684); experiment: Inhibition of CYP3A4 (unknown origin); format: ADME
Chain of Cytochrome P450 3A4 (P08684 whole entry): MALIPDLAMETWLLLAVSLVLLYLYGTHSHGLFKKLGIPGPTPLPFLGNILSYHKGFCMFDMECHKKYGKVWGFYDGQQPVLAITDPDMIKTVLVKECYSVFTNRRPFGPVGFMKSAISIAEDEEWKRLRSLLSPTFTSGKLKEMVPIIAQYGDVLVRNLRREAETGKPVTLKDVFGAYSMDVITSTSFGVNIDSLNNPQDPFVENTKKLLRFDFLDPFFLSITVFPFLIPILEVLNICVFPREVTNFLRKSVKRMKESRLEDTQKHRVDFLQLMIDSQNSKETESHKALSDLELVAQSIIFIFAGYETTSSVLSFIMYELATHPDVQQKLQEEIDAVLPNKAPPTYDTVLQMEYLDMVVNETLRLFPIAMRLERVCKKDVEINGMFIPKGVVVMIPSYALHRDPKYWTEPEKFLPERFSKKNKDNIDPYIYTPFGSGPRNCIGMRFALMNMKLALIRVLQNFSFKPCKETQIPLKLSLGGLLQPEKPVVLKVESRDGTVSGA

[15] = Stability in human plasma assessed as parent compound remaining measured after 120 mins; format: ADME, cell-free; conditions: 2 h
[16] = Stability in Wistar rat plasma assessed as parent compound remaining measured after 120 mins; format: ADME, cell-free; conditions: 2 h
[17] = Stability in mouse plasma assessed as parent compound remaining measured after 120 mins; format: ADME, cell-free; conditions: 2 h
[18] = Apparent permeability across apical to basolateral side in human Caco-2 cells; format: ADME, cell-based
[19] = Efflux ratio of permeability in human Caco2 cells; format: ADME, cell-based; conditions: caco-2
[20] = Microsomal stability in mouse plasma assessed as half life; format: ADME, cell-free
[21] = Microsomal stability in Wistar rat plasma assessed as half life; format: ADME, cell-free
[22] = Microsomal stability in human plasma assessed as half life; format: ADME, cell-free
[23] = biological target: T5, Adenosine receptor A1 (Mus musculus, UniProt Q60612); experiment: Displacement of [3H] N6-R-phenylisopropyladenosine from mouse A1A receptor stably expressed in HEK293 cell membrane by radioligand inhibition assay; format: cell membranes
T5 sequence (Q60612 whole entry): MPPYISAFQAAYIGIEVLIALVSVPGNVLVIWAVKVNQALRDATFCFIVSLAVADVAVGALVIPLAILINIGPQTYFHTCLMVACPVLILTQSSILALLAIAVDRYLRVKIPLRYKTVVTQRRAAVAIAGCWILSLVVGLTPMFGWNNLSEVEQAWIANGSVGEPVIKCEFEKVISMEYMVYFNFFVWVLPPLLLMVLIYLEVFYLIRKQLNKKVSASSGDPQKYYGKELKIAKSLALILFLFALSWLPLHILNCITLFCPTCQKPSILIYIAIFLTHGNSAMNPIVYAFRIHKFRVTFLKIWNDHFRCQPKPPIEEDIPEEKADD

[24] = biological target: T6, Adenosine receptor A3 (Mus musculus, UniProt Q61618); experiment: Displacement of [125I] N6-4-amino-3-iodobenzyl adenosine 5-N-methyluronamide from mouse A3A receptor stably expressed in HEK293 cell membrane by radioligand inhibition assay; format: cell membranes
T6 sequence (Q61618 whole entry): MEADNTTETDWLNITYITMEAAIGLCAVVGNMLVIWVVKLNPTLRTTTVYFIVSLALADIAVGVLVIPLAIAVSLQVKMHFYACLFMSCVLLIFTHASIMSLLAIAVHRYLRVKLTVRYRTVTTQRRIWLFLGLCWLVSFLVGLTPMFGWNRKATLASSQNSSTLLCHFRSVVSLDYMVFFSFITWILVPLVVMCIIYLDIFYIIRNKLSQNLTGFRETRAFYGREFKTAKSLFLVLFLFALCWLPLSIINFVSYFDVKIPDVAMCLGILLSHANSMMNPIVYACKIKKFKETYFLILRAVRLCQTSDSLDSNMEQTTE

[25] = biological target: T7, Adenosine receptor A1 (Homo sapiens, UniProt P30542); experiment: Displacement of [3H] N6-R-phenylisopropyladenosine from human A1A receptor stably expressed in HEK293 cell membrane by radioligand inhibition assay; format: cell membranes
T7 sequence (P30542 whole entry): T1 sequence (whole entry)

[26] = biological target: CYP2C19 (Homo sapiens, UniProt P33261); experiment: as §1; format: ADME
Chain of CYP2C19 (P33261 whole entry): as the sequence (P33261 whole entry) above

[27] = biological target: CYP2D6 (Homo sapiens, UniProt P10635); experiment: as §2; format: ADME
Chain of CYP2D6 (P10635 whole entry): as the sequence (P10635 whole entry) above

[28] = Oral bioavailability in Wistar rat at 3 mg/kg; format: ADME, organism-based; conditions: in vivo
[29] = biological target: T2, Adenosine receptor A2a; experiment: Displacement of [3H]-2-p-2-(carboxyethyl)phenyl-ethylamino-5'-N-ethylcarboxamidoadenosine from human A2A receptor stably expressed in HEK293 cell membrane by radioligand inhibition assay; format: cell membranes

solubility ([1]; buffer) | half-life [4] | inhibition [6] | Ki [7] | Stability [8] | Stability [9] | IC50 [10] | IC50 [11] | IC50 [12] | IC50 [13] | IC50 [14] | Stability [15] | Stability [16] | Stability [17] | half-life [20] | half-life [21] | half-life [22] | Ki [23] | Ki [24] | Compound | IC50 [3] | further results
3.84 µg/mL (≈ 6.3 µM) | 43.9 min | 16% | 8.67 nM | 100% | 100% | 430 nM | > 30000 nM | 15100 nM | 17700 nM | 780 nM | 100% | 100% | 100% | 6.72 min | 11.5 min | 2 min | 7050 nM | 2.21 nM | CNC(=O)[C@@]12C[C@@H]1[C@@H](n1cnc3c(NCCc4ccc(OC)c(OC)c4)nc(C#Cc4ccc(Cl)s4)nc31)[C@H](O)[C@@H]2O | 3650 nM | bioavailability [2]: 1.88%; inhibition [5]: 0%; Papp [18]: 0.44 10^-6 cm/s; Ratio [19]: 46.6
– | – | 39% | 4.48 nM | – | – | – | – | – | – | – | – | – | – | – | – | – | 272 nM | 1.69 nM | CNC(=O)[C@@]12C[C@@H]1[C@@H](n1cnc3c(NCCc4ccccc4)nc(I)nc31)[C@H](O)[C@@H]2O | – | Ki [25]: 574 nM
– | 16.4 min | – | – | – | – | – | – | – | – | – | – | – | – | 7.92 min | 15.7 min | 16.3 min | – | – | COc1cc(CCNc2nc(C#Cc3ccccc3)nc3c2ncn3[C@H]2[C@H](O)[C@H](O)[C@@H]3C[C@@H]32)ccc1O | 5390 nM | solubility ([1]; aqueous, read-out: solubility): 13 µg/mL (≈ 26.1 µM); IC50 [26]: > 30000 nM; IC50 [27]: > 30000 nM; Papp A→B [18]: 2.71 ×10⁻⁶ cm/s
167 µg/mL (≈ 317 µM) | 101 min | – | – | 64.5% | 100% | 250 nM | > 30000 nM | > 30000 nM | > 30000 nM | 830 nM | 56.9% | 84.6% | 94.6% | 9.15 min | 22.5 min | 6.51 min | 317 nM | 17.6 nM | CNC(=O)[C@@]12C[C@@H]1[C@@H](n1cnc3c(NCCc4ccc(OC)c(O)c4)nc(OCC(C)C)nc31)[C@H](O)[C@@H]2O | 16500 nM | bioavailability [28]: 4.34%; Ki [29]: 588 nM
